Experimental data taken from patent EP0648766A1, “AGENT ACTING ON THE CENTRAL NERVOUS SYSTEM, METHOD FOR ITS PREPARATION AND PHARMACEUTICAL COMPOSITIONS CONTAINING SUCH AGENT” (VITA-INVEST, S.A., priority 1993, dated 1994).
Read-outs that look alike come from different tables or passages of the source.

Legend:
[1] = tested on: rats; test: Anxiolytic activity, social interaction test (method of File); assay type: in vivo
From the text: 2) Anxiolytic activity. Social interaction test.
This consists in placing a pair of rats in an unknown and strongly lit environment.

[2] = Acute toxicity; design: species or system mice; settings: mouse, in vivo
Procedure: The acute toxicity is determined by different vias in mice.

[3] = tested on: rats; test: Effect on learning and memory, passive avoidance test; assay type: in vivo
From the text: 4) Effect on learning and memory. Passive avoidance test on rats.
Use is made of the method of Chugh and colls., Eur. J. Pharmacol., 203, 121-123 (1991). This consists in placing the rats in a two-compartment (light and dark) box separated by a door which opens and closes as the experimenter wishes; the floor of both cages is constructed using a metal grid electrifiable as desired in terms of current and duration. The animal is conditioned to avoid the dark zone, and the time of latency in the exposures following the one in which the animals receive the electric shock of 0.2 mA and duration of 3 seconds is determined.

[4] = tested on: mouse; test: Antidepressive activity, desperate behaviour induced by enforced swimming, Porsolt test; assay type: in vivo; settings: mice
Procedure: 3) Antidepressive activity. Desperate behaviour induced in mouse by enforced swimming. Porsolt test.
This consists in subjecting the mice to a swimming test by placing them inside transparent cylinders of set dimensions, with water at a temperature of 20-22°C. After a prior detection test, the time the animal takes to adopt an immobile posture is determined, recording the duration of immobility. The average immobility time of the treated groups is compared with that of the control group.

[5] = Anxiolytic activity, two-compartment box (method of Crawley); assay type: in vivo
From the text: 1) Anxiolytic activity. Two-compartment box.
The method used is that of Crawley, J.N.; Pharmacol. Biochem. Behav., 15, 695-699 (1981). This consists of a two-compartment box with different lighting, counting the time of stay and number of entries into the light and dark compartments, the number of lifting movements and the number of lines crossed in each of the two compartments, before and after treatment with the products under study.

[6] = ip, mice, i.p., read-out: APPROXIMATE DL₅₀
[7] = 0,01 mg/kg i.p., Excipient 158 ± 15

Compound: O=C1CC2(CCCC2)CC(=O)N1CCCCN1CCN(c2ncccn2)CC1 [BUSPIRONA]
- SOCIAL INTERACTION TIME (sec ± E.S.) ([1]; 0,25 mg/kg i.p., Excipient 158 ± 15): 287 ± 19 s
- SOCIAL INTERACTION TIME (sec ± E.S.) ([1]; 1 mg/kg i.p., Excipient 158 ± 15): 275 ± 14 s

Compound: O=Cc1c(N2CCN(Cc3ccc4c(c3)OCO4)CC2)[nH]c2ccccc12 [COMPOUND I, 3-[2-(1-(4'-piperonylpiperazinyl))indolyl]-carboxaldehyde]
- LD50 [2, 6]: > 500 mg/kg
- LD50 ([2]; po, mice, v.o., read-out: APPROXIMATE DL₅₀): > 500 mg/kg
- SOCIAL INTERACTION TIME (sec ± E.S.) ([1]; 0,5 mg/kg i.p., Excipient 158 ± 15): 235 ± 12 s
- SOCIAL INTERACTION TIME (sec ± E.S.) ([1]; 2 mg/kg v.o., Excipient i.p 158 ± 15): 262 ± 17 s
- 2nd LATENCY (10'), average ± E.S. ([3]; 1 mg/kg i.p., N 7, Excipient 5,7 ± 1,5): 3,3 ± 1,4
- 2nd LATENCY (10'), median ([3]; 1 mg/kg i.p., N 7, Excipient 6): 4
- 1st LATENCY, average ± E.S. ([3]; 1 mg/kg i.p., N 7, Excipient 7,1 ± 1,6): 2,7 ± 0,7
- 1st LATENCY, median ([3]; 1 mg/kg i.p., N 7, Excipient 9): 3
- 3rd LATENCY -(24 h), average ± E.S. ([3]; 1 mg/kg i.p., N 7, Excipient 10,7 ± 4,8): 23,6 ± 9,0
- 3rd LATENCY -(24 h), median ([3]; 1 mg/kg i.p., N 7, Excipient 21): 42
- IMMOBILITY TIME (sec ± E.S.) ([4]; 0,1 mg/kg i.p., Excipient 89,70 ± 21,7): 49,4 ± 17,8 sec
- IMMOBILITY TIME (sec ± E.S.) ([4]; 0,5 mg/kg i.p., Excipient 89,70 ± 21,7): 31,60 ± 10,2 sec
- IMMOBILITY TIME (sec ± E.S.) ([4]; 1 mg/kg i.p., Excipient 132,53 ± 8,70): 59,80 ± 11,00 sec
- IMMOBILITY TIME (sec ± E.S.) ([4]; 10 mg/kg i.p., Excipient 132,53 ± 8,70): 136,60 ± 11,26 sec
- % TIME IN LIGHT COMPARTMENT (X ± E.S.) ([5]; 2 µg/kg i.p., N 11, same group PRE-EXPOSURE 10,8 ± 3,6): 14,6 ± 7,2%
- % TIME IN LIGHT COMPARTMENT (X ± E.S.) ([5]; 4 µg/kg v.o., N 10, same group PRE-EXPOSURE 14,5 ± 4,0): 20,0 ± 5,5%
- % TIME IN LIGHT COMPARTMENT (X ± E.S.) ([5]; 8 µg/kg v.o., N 11, same group PRE-EXPOSURE 24,9 ± 6,8): 28,6 ± 8,0%
- % TIME IN LIGHT COMPARTMENT (X ± E.S.) ([5]; 20 µg/kg i.p., N 11, same group PRE-EXPOSURE 10,7 ± 3,5): 12,7 ± 6,5%
- % TIME IN LIGHT COMPARTMENT (X ± E.S.) ([5]; 50 µg/kg i.p., N 20, same group PRE-EXPOSURE 22,9 ± 3,1): 15,4 ± 4,4%
- % TIME IN LIGHT COMPARTMENT (X ± E.S.) ([5]; 100 µg/kg i.p., N 20, same group PRE-EXPOSURE 15,0 ± 2,0): 8,6 ± 3,2%

Compound: CN1C(=O)CN=C(c2ccccc2)c2cc(Cl)ccc21 [DIAZEPAM]
- SOCIAL I[…] (sec ± E.S.) ([1]; 2 mg/kg i.p., Excipient 158 ± 15): 257 ± 22 s

Compound: CN1C2CCCC1CC(NC(=O)c1nn(C)c3ccccc13)C2 (stereo not shown) [GRANISETRON]
- LD50 [2, 6]: 89 mg/kg
- 2nd LATENCY (10'), average ± E.S. ([3]; 0,1 mg/kg i.p., N 6, Excipient 5,7 ± 1,5): 8,5 ± 1,8
- 2nd LATENCY (10'), median ([3]; 0,1 mg/kg i.p., N 6, Excipient 6): 11
- 1st LATENCY, average ± E.S. ([3]; 0,1 mg/kg i.p., N 6, Excipient 7,1 ± 1,6): 6,3 ± 1,1
- 1st LATENCY, median ([3]; 0,1 mg/kg i.p., N 6, Excipient 9): 8
- 3rd LATENCY -(24 h), average ± E.S. ([3]; 0,1 mg/kg i.p., N 6, Excipient 10,7 ± 4,8): 19,0 ± 6,5
- 3rd LATENCY -(24 h), median ([3]; 0,1 mg/kg i.p., N 6, Excipient 21): 21

Compound: Cc1nccn1CC1CCc2c(c3ccccc3n2C)C1=O (stereo not shown) [ONDANSETRON]
- LD50 ([2]; ip): 7.5 mg/kg
- SOCIAL INTERACTION TIME (sec ± E.S.) [1, 7]: 247 ± 22 s
- SOCIAL INTERACTION TIME (sec ± E.S.) ([1]; 0,05 mg/kg i.p., Excipient 158 ± 15): 219 ± 18 s
- % TIME IN LIGHT COMPARTMENT (X ± E.S.) ([5]; 2µg/kg i.p., N 10, same group PRE-EXPOSURE 16,6 ± 3,3): 12,3 ± 2,7%
- % TIME IN LIGHT COMPARTMENT (X ± E.S.) ([5]; 4 µg/kg v.o., N 10, same group PRE-EXPOSURE 21,1 ± 8,0): 18,7 ± 5,1%

Compound: CN1[C@@H]2CC[C@H]1C[C@@H](OC(=O)c1c[nH]c3ccccc13)C2 [TROPISETRON]
- SOCIAL INTERACTION TIME (sec ± E.S.) [1, 7]: 253 ± 10 s
- SOCIAL INTERACTION TIME (sec ± E.S.) ([1]; 0,1 mg/kg i.p., Excipient 158 ± 15): 231 ± 26 s
- % TIME IN LIGHT COMPARTMENT (X ± E.S.) ([5]; 10 µg/kg i.p., N 20, same group PRE-EXPOSURE 12,4 ± 3,0): 12,3 ± 3,0%

Compound: COc1cc(N)c(Cl)cc1C(=O)NC1CN2CCC1CC2 (stereo not shown) [ZACOPRIDE]
- LD50 [2, 6]: 135 mg/kg

Compound: CN(C)CCCN1c2ccccc2CCc2ccccc21 [[…]]
- […] (sec ± E.S.) ([4]; 30 mg/kg i.p., Excipient 132,53 ± 8,70): 71,72 ± 9,82 sec
